Assay results from paper PMC7481357, “N-terminal Myristoylation Enhanced the Antimicrobial Activity of Antimicrobial Peptide PMAP-36PW” (Frontiers in Cellular and Infection Microbiology, 2020).
“Also recorded” adds a separate entry of the source. Residues, ends and D or L forms follow the SMILES beside them. *: point of attachment. Myristoyl = CCCCCCCCCCCCCC(=O)*

Tests used:
Type in all cases: in vivo, BALB/c mice
P. aeruginosa GIM 1.551 [1] = test: Pneumonia (lung infection) model; settings: intranasal 40 μL, 1 μg/μL, once a day for 3 days
Procedure: A pneumonia model in vivo was established as previously reported, with minor modification (Cortés et al., [2002]; Aoki et al., [2009]; Shi et al., [2018]). A total of 120 mice were randomly divided into two experimental models, one was intranasal inoculation of S. aureus ATCC 25923 (8.3 × 10^9 CFU/mL, 50 μL), and the other was intranasal inoculation of P. aeruginosa GIM 1.551 (4.5 × 10^10 CFU/mL, 50 μL). In the S. aureus ATCC 25923 model, 60 mice were divided into the following six groups of 10 mice each: no infection and treatment was used as a blank control, those with intranasal administration of PBS (40 μL) as the negative control group, those administered with benzylpenicillin potassium (40 μL, 1 μg/μL) as the positive control group, and the remaining three corresponded to Myr-36PW (40 μL, 1 μg/μL), PMAP-36PW (40 μL, 1 μg/μL), and PMAP-36 groups (40 μL, 1 μg/μL). The procedure for P. aeruginosa GIM 1.551 model is the same as for S. aureus ATCC 25923 model, except for the use of ampicillin sodium as the positive control. After 4 h post-inoculation, treatment was initiated, once a day for 3 days. The mice were sacrificed 24 h after the treatment. Changes in the appearance of lung tissues were observed, and lung tissues were removed aseptically from the mice. Half of the removed lung tissues were gently fixed in buffered formaldehyde solution for histopathological assessment by hematoxylin and eosin (H&E) staining. Pathological changes were scored to provide individual therapeutic status as described previously (Lei et al., [2018]). The remaining lung tissues were added with 1 mL of PBS, homogenized, and serially diluted. Bacterial CFU counts were determined.
Figure 8 Therapeutic effect for pneumonia by Myr-36PW in vivo. Mice were injected with S. aureus ATCC 25923 or P. aeruginosa GIM 1.551 to form pneumonia, and lungs (n = 5) in each group were collected on day 4 after intranasal bacterial inoculation. (A) Morphological changes of lung tissues. (B) Representative histopathological images of processed lung section with hematoxylin and eosin (H&E) staining. Images are presented at a magnification of 20×. a: inflammatory cell infiltration. b: the alveolar wall is thickened. c: alveolar wall congestion or alveolar hemorrhage. (C,D) Pathological scores of the lung sections. Scoring standard: 1 indicated no pathology, 2 indicated local pulmonary congestion and inflammatory cell infiltration, 3 indicated pulmonary congestion and a large number of inflammatory cell infiltration, affecting <20% of the section, 4 indicated pulmonary congestion and a large number of inflammatory cell infiltration, affecting 20–50% of the section, and 5 indicated pulmonary congestion and a large number of inflammatory cell infiltration, affecting >50% of the section. (E,F) Bacterial CFU in lung homogenate. BP is benzylpenicillin potassium, AS is ampicillin sodium. Data represent the mean ± SD of five individual experiments.

P. aeruginosa GIM 1.551 [2] = test: Subcutaneous abscess model; settings: injected 20 μL, 1 μg/μL, once a day for 3 days
Procedure: A subcutaneous abscess model in vivo was established as previously reported (Zhao et al., [2019]). The mouse dorsal region with 3.0 cm diameter was treated with hair pusher. A total of 120 mice were randomly divided into two experimental models, one was challenged with S. aureus ATCC 25923 (2.5 × 10^8 CFU/mL, 60 μL), and the other was challenged with P. aeruginosa GIM 1.551 (3.0 × 10^8 CFU/mL, 60 μL). In the S. aureus ATCC 25923 model, 60 mice were divided into six groups of 10 members. The mice with no infection and treatment was used as a blank control, those directly injected with PBS (20 μL) as the negative control group, those injected with benzylpenicillin potassium (20 μL, 1 μg/μL) as the positive control group, and the remaining three groups as the treatment groups injected with Myr-36PW (20 μL, 1 μg/μL), PMAP-36PW (20 μL, 1 μg/μL), and PMAP-36 (20 μL, 1 μg/μL). The procedure in P. aeruginosa GIM 1.551 model is the same as that in S. aureus ATCC 25923 model, except for the use of ampicillin sodium as a positive control. Treatment once a day for 3 days was initiated when the mice developed prominent pustules on their backs. A day after the treatment, the size of the abscess was observed, and its tissues were excised, homogenized, and serially diluted. Bacteria CFU counts were calculated.
Figure 10 Treatment efficacy of subcutaneous abscess by Myr-36PW in vivo. Mice were injected with S. aureus ATCC 25923 or P. aeruginosa GIM 1.551 to develop a subcutaneous abscess before treatment. (A) Changes in the abscess area of mice after 3 days treatment. (B,C) Quantitative analysis of bacterial CFU in abscess area that received 3 days treatment under various experimental conditions. The number of CFU in each treatment group was normalized by using the CFU of the experimental group divided by the CFU of the PBS group (100%). BP is benzylpenicillin potassium, AS is ampicillin sodium. Data represent the mean ± SD of five individual experiments. *P < 0.05 and **P < 0.01, compared with PBS. ^#P < 0.05 and ^##P < 0.01, compared with PMAP-36PW.

P. aeruginosa GIM 1.551 [3] = test: Wound infection model; settings: 20 μL, 1 μg/μL, once a day for 7 days
Procedure: Sixty mice with ten mice in each group were used in the experiment. Infection and treatment were performed as previously described (Hong et al., [2017]). The mouse dorsal region with a diameter of 3.0 cm was treated with hair pusher, and a full-thickness 2.0 cm diameter wound was created by excising the skin and infected by direct seeding with P. aeruginosa GIM 1.551 (1 × 10^8 CFU/mL, 50 μL). The wound was then covered with sterile gauze to prevent cross contamination. Treatment was initiated at 24 h after bacterial inoculation. The mice with no infection and treatment was used as a blank control, those provided with PBS (20 μL) as the negative control group, those administered with ampicillin sodium (20 μL, 1 μg/μL) as the positive control group, and the remaining were those treated with the three peptides (20 μL, 1 μg/μL) once a day for 7 days as the treatment groups. The mice were sacrificed after the 7 day treatment. Changes in the wound were observed, and the infected sections of skin were aseptically contained, homogenized, and serially diluted. Bacterial CFU counts were obtained.
Figure 11 Treatment value of wound by Myr-36PW in vivo. A 2 cm wound was cut with a knife and directly injected with P. aeruginosa GIM 1.551. (A) Wound changes of mice after 7 days treatment. (B) Bacterial CFU in the wound area treated for 7 days under different experimental conditions. AS is ampicillin sodium. Data represent the mean Log (CFU) ± SD of five individual experiments. *P < 0.05 and **P < 0.01, compared with PBS. ^#P < 0.05, compared with PMAP-36PW.

CCCCCCCCCCCCCC(=O)NCC(=O)NCC(=O)N[C@@H](CCCNC(=N)N)C(=O)N[C@@H](Cc1ccccc1)C(=O)N[C@@H](CCCNC(=N)N)C(=O)N[C@@H](CCCNC(=N)N)C(=O)N[C@@H](CC(C)C)C(=O)N[C@@H](CCCNC(=N)N)C(=O)N[C@@H](CCCCN)C(=O)N[C@@H](CCCCN)C(=O)N[C@H](C(=O)N[C@@H](CCCNC(=N)N)C(=O)N[C@@H](CCCCN)C(=O)N[C@@H](CCCNC(=N)N)C(=O)N[C@@H](CC(C)C)C(=O)N[C@@H](CCCCN)C(=O)N[C@@H](CCCCN)C(=O)N[C@H](C(=O)NCC(=O)N[C@@H](CCCCN)C(=O)N[C@H](C(=O)N[C@@H](CC(C)C)C(=O)N[C@@H](CCCCN)C(=O)N[C@@H](Cc1c[nH]c2ccccc12)C(=O)N[C@H](C(=O)N[C@@H](Cc1c[nH]c2ccccc12)C(=O)N[C@@H](Cc1c[nH]c2ccccc12)C(=O)N[C@H](C(=O)N[C@H](C(=O)NCC(=O)N[C@@H](CO)C(=O)N[C@H](C(=O)N1CCC[C@H]1C(=O)N[C@@H](CC(C)C)C(=O)NCC(=O)N[C@@H](CS)C(=O)NCC(=O)O)[C@@H](C)CC)C(C)C)[C@@H](C)CC)[C@@H](C)CC)C(C)C)[C@@H](C)CC)[C@@H](C)O [Myr-36PW] (Myristoyl-GGRFRRLRKKTRKRLKKIGKVLKWIWWIVGSIPLGCG-OH; C-terminus assumed)
Lung histopathology (H&E) (P. aeruginosa GIM 1.551 [1]): a complete alveolar structure, reduced blood stasis, and large reduction in inflammatory cells | Bacterial CFU in lung homogenate (P. aeruginosa GIM 1.551 [1]; n = 5): decreased the P. aeruginosa GIM 1.551 CFU level compared with the PMAP-36PW group (P < 0.05) | Pathological scores of the lung sections (P. aeruginosa GIM 1.551 [1]; n = 5): lower scores than PMAP-36PW group (P < 0.05) | Abscess area (P. aeruginosa GIM 1.551 [2]): significantly reduced the abscess area and effectively suppressed its growth | Bacterial CFU in abscess area (P. aeruginosa GIM 1.551 [2]; vs PMAP-36PW: Myr-36PW P < 0.05, ampicillin sodium P < 0.01, n = 5): significant difference compared with that of PBS group (P < 0.01); also recorded: lower than that of PMAP-36PW group | Wound size (P. aeruginosa GIM 1.551 [3]): significantly reduced | Bacterial CFU in the wound area (P. aeruginosa GIM 1.551 [3]; vs PBS group: PMAP-36PW P < 0.05, Myr-36PW and ampicillin sodium P < 0.01, n = 5): significantly reduced
